Assay results: patent US10131652B2, “Pyrimidinyloxy benzene derivatives as herbicides” (E. I. DU PONT DE NEMOURS AND COMPANY, priority 2014, dated 2018)

How the values were obtained:
Test in all cases: Test F pre-/postemergence plant response
Format in all cases: in vivo
[1] = system: Italian ryegrass (Lolium multiflorum); conditions: Lolium multiflorum, pre-emergence, Preemergence, scale 0 to 100, read-out: Plant response rating, Ryegrass, Italian
Procedure, shortened: (§1)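 Plant response is a visual score from 0, meaning no effect, to 100, meaning complete control, assigned by comparison with untreated plants. Ratings were made 14 to 21 days after preemergence application to seeded silt loam or postemergence application to plants at the 1- to 4-leaf stage.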

[2] = system: yellow nutsedge (Cyperus esculentus); conditions: Cyperus, pre-emergence, scale 0 to 100, read-out: Plant response rating, Nutsedge, Yellow
Procedure, shortened: as §1

[3] = system: barnyardgrass (Echinochloa crus-galli); conditions: Echinochloa crus-galli, pre-emergence, scale 0 to 100, read-out: Plant response rating, Barnyardgrass
Procedure, shortened: as §1

[4] = system: surinam grass (Brachiaria decumbens); conditions: Urochloa decumbens, pre-emergence, scale 0 to 100, read-out: Plant response rating, Surinam Grass
Procedure, shortened: as §1

[5] = system: velvetleaf (Abutilon theophrasti); conditions: Abutilon theophrasti, pre-emergence, scale 0 to 100, read-out: Plant response rating, Velvetleaf
Procedure, shortened: as §1

[6] = system: ragweed (common ragweed, Ambrosia elatior); conditions: Ambrosia artemisiifolia, pre-emergence, scale 0 to 100, read-out: Plant response rating, Ragweed
Procedure, shortened: as §1

[7] = system: arrowleaf sida (Sida rhombifolia); conditions: Sida rhombifolia, pre-emergence, scale 0 to 100, read-out: Plant response rating, Arrowleaf Sida
Procedure, shortened: as §1

[8] = system: large (Lg) crabgrass (Digitaria sanguinalis); conditions: Digitaria sanguinalis, pre-emergence, scale 0 to 100, read-out: Plant response rating, Crabgrass, Large
Procedure, shortened: as §1

[9] = system: hairy beggarticks (Bidens pilosa); conditions: Bidens pilosa, pre-emergence, scale 0 to 100, read-out: Plant response rating, Beggarticks
Procedure, shortened: as §1

[10] = system: nightshade (eastern black nightshade, Solanum ptycanthum); conditions: Solanum, pre-emergence, scale 0 to 100, read-out: Plant response rating, Nightshade
Procedure, shortened: as §1

kochia (Kochia scoparia) = conditions: Bassia scoparia, pre-emergence, Preemergence, scale 0 to 100, read-out: Plant response rating, Kochia
Procedure, shortened: as §1

Fc1cccc(Oc2ncc(Cl)cn2)c1-c1cc(C(F)(F)F)on1 [Compound 168, 5-chloro-2-[2-[5-(trifluoromethyl)-3-isoxazolyl]-3-fluorophenoxy]pyrimidine]
pest or weed control at 16 g/ha ([1]; 16 g ai/ha): 15%
pest or weed control at 31 g/ha ([1]; 31 g ai/ha): 30%
pest or weed control at 125 g/ha ([1]; 125 g ai/ha): 70%
pest or weed control at 62 g/ha [1]: 65%
pest or weed control at 16 g/ha ([2]; 16 g ai/ha Preemergence): 0%
pest or weed control at 31 g/ha ([2]; 31 g ai/ha Preemergence): 0%
pest or weed control at 125 g/ha ([2]; 125 g ai/ha Preemergence): 20%
pest or weed control at 62 g/ha ([2]; Preemergence): 0%
pest or weed control at 16 g/ha ([3]; 16 g ai/ha Preemergence): 0%
pest or weed control at 31 g/ha ([3]; 31 g ai/ha Preemergence): 25%
pest or weed control at 62 g/ha ([3]; 62 g ai/ha Preemergence): 80%
pest or weed control at 125 g/ha ([3]; 125 g ai/ha Preemergence): 100%
pest or weed control at 16 g/ha ([4]; 16 g ai/ha Preemergence): 50%
pest or weed control at 31 g/ha ([4]; 31 g ai/ha Preemergence): 65%
pest or weed control at 125 g/ha ([4]; 125 g ai/ha Preemergence): 100%
pest or weed control at 62 g/ha ([4]; Preemergence): 70%
pest or weed control at 16 g/ha ([5]; 16 g ai/ha Preemergence): 35%
pest or weed control at 31 g/ha ([5]; 31 g ai/ha Preemergence): 75%
pest or weed control at 125 g/ha ([5]; 125 g ai/ha Preemergence): 100%
pest or weed control at 62 g/ha ([5]; Preemergence): 100%
pest or weed control at 16 g/ha ([6]; 16 g ai/ha Preemergence): 10%
pest or weed control at 31 g/ha ([6]; 31 g ai/ha Preemergence): 35%
pest or weed control at 125 g/ha ([6]; 125 g ai/ha Preemergence): 98%
pest or weed control at 62 g/ha ([6]; Preemergence): 65%
pest or weed control at 16 g/ha ([7]; 16 g ai/ha Preemergence): 95%
pest or weed control at 31 g/ha ([7]; 31 g ai/ha Preemergence): 100%
pest or weed control at 62 g/ha ([7]; 62 g ai/ha Preemergence): 100%
pest or weed control at 125 g/ha ([7]; 125 g ai/ha Preemergence): 100%
pest or weed control at 16 g/ha ([8]; 16 g ai/ha Preemergence): 65%
pest or weed control at 31 g/ha ([8]; 31 g ai/ha Preemergence): 95%
pest or weed control at 62 g/ha ([8]; 62 g ai/ha Preemergence): 98%
pest or weed control at 125 g/ha ([8]; 125 g ai/ha Preemergence): 100%
pest or weed control at 16 g/ha ([9]; 16 g ai/ha Preemergence): 0%
pest or weed control at 31 g/ha ([9]; 31 g ai/ha Preemergence): 0%
pest or weed control at 62 g/ha ([9]; 62 g ai/ha Preemergence): 0%
pest or weed control at 125 g/ha ([9]; 125 g ai/ha Preemergence): 0%
pest or weed control at 16 g/ha ([10]; 16 g ai/ha Preemergence): 5%
pest or weed control at 31 g/ha ([10]; 31 g ai/ha Preemergence): 98%
pest or weed control at 125 g/ha ([10]; 125 g ai/ha Preemergence): 98%
pest or weed control at 62 g/ha ([10]; Preemergence): 98%
pest or weed control at 16 g/ha (kochia (Kochia scoparia); 16 g ai/ha): 95%
pest or weed control at 31 g/ha (kochia (Kochia scoparia); 31 g ai/ha): 100%
pest or weed control at 125 g/ha (kochia (Kochia scoparia); 125 g ai/ha): 100%
pest or weed control at 62 g/ha (kochia (Kochia scoparia)): 100%
